Test: xn = mol fraction of the nth substance listed
Conditions: 101 kPa, Liquid

Clc1ccccc1 [chlorobenzene] + CCCCCCCCCCO
Conditions | mass density [kg/m3] | speed of sound [m/s] | viscosity [mPa·s]
298.15 K, x1 = 0.1664 | 852.913 | 1362.6 | 7.762
298.15 K, x1 = 0.322 | 881.587 | 1344.4 | 5.123
298.15 K, x1 = 0.4609 | 911.692 | 1327 | 3.484
298.15 K, x1 = 0.5731 | 939.879 | 1311.7 | 2.539
298.15 K, x1 = 0.6619 | 965.236 | 1299.5 | 1.967
298.15 K, x1 = 0.7456 | 992.108 | 1288.5 | 1.517
298.15 K, x1 = 0.8174 | 1017.95 | 1280.1 | 1.243
298.15 K, x1 = 0.8857 | 1045.67 | 1273.3 | 1.017
298.15 K, x1 = 0.9426 | 1071.48 | 1269.5 | 0.865
298.15 K, x1 = 1 | 1100.67 | 1268 | 0.757
303.15 K, x1 = 0.1664 | 848.821 | 1343.9 | 6.542
303.15 K, x1 = 0.322 | 877.329 | 1325 | 4.407
303.15 K, x1 = 0.4609 | 907.247 | 1307.2 | 3.058
303.15 K, x1 = 0.5731 | 935.236 | 1292.4 | 2.262
303.15 K, x1 = 0.6619 | 960.447 | 1280.9 | 1.771
303.15 K, x1 = 0.7456 | 987.138 | 1270.5 | 1.388
303.15 K, x1 = 0.8174 | 1012.83 | 1262.6 | 1.147
303.15 K, x1 = 0.8857 | 1040.32 | 1256.1 | 0.949
303.15 K, x1 = 0.9426 | 1065.89 | 1252.2 | 0.808
303.15 K, x1 = 1 | 1095.1 | 1249.4 | 0.714
308.15 K, x1 = 0.1664 | 845.166 | 1326 | 5.554
308.15 K, x1 = 0.322 | 873.388 | 1306.4 | 3.814
308.15 K, x1 = 0.4609 | 903.044 | 1288.1 | 2.695
308.15 K, x1 = 0.5731 | 930.8 | 1272.9 | 2.021
308.15 K, x1 = 0.6619 | 955.749 | 1260.8 | 1.597
308.15 K, x1 = 0.7456 | 982.146 | 1249.5 | 1.273
308.15 K, x1 = 0.8174 | 1007.56 | 1240.8 | 1.045
308.15 K, x1 = 0.8857 | 1034.75 | 1234.6 | 0.868
308.15 K, x1 = 0.9426 | 1060.08 | 1231 | 0.756
308.15 K, x1 = 1 | 1089.08 | 1230.9 | 0.677
313.15 K, x1 = 0.1664 | 841.509 | 1308.6 | 4.751
313.15 K, x1 = 0.322 | 869.536 | 1288.1 | 3.323
313.15 K, x1 = 0.4609 | 898.972 | 1269.1 | 2.388
313.15 K, x1 = 0.5731 | 926.509 | 1253.3 | 1.816
313.15 K, x1 = 0.6619 | 951.271 | 1241.1 | 1.454
313.15 K, x1 = 0.7456 | 977.488 | 1230.1 | 1.156
313.15 K, x1 = 0.8174 | 1002.68 | 1222.1 | 0.968
313.15 K, x1 = 0.8857 | 1029.64 | 1216.5 | 0.809
313.15 K, x1 = 0.9426 | 1054.84 | 1213.4 | 0.702
313.15 K, x1 = 1 | 1083.66 | 1212.6 | 0.617

Clc1ccccc1 [chlorobenzene] + CCCCCCCCCO
x1 = 1
Conditions | mass density [kg/m3] | speed of sound [m/s] | viscosity [mPa·s]
298.15 K | 1100.67 | 1268 | 0.757
303.15 K | 1095.1 | 1249.4 | 0.714
308.15 K | 1089.08 | 1230.9 | 0.677
313.15 K | 1083.66 | 1212.6 | 0.617

Clc1ccccc1 [chlorobenzene] + CCCCCCCCO
Conditions | mass density [kg/m3] | speed of sound [m/s] | viscosity [mPa·s]
298.15 K, x1 = 0.1423 | 848.715 | 1334.1 | 5.448
298.15 K, x1 = 0.2807 | 877.644 | 1319.1 | 3.87
298.15 K, x1 = 0.4121 | 908.104 | 1303.7 | 2.788
298.15 K, x1 = 0.5237 | 936.698 | 1291.1 | 2.116
298.15 K, x1 = 0.6158 | 962.489 | 1281.2 | 1.692
298.15 K, x1 = 0.7073 | 990.466 | 1272.7 | 1.363
298.15 K, x1 = 0.7885 | 1017.46 | 1267 | 1.132
298.15 K, x1 = 0.8662 | 1045.68 | 1264 | 0.956
298.15 K, x1 = 0.9331 | 1072.02 | 1264 | 0.841
298.15 K, x1 = 1 | 1100.97 | 1268 | 0.757
303.15 K, x1 = 0.1423 | 844.912 | 1317.5 | 4.64
303.15 K, x1 = 0.2807 | 873.625 | 1303.4 | 3.352
303.15 K, x1 = 0.4121 | 903.886 | 1289.6 | 2.455
303.15 K, x1 = 0.5237 | 932.283 | 1277.8 | 1.89
303.15 K, x1 = 0.6158 | 957.91 | 1268.6 | 1.528
303.15 K, x1 = 0.7073 | 985.68 | 1260 | 1.243
303.15 K, x1 = 0.7885 | 1012.47 | 1253.4 | 1.04
303.15 K, x1 = 0.8662 | 1040.47 | 1248.7 | 0.885
303.15 K, x1 = 0.9331 | 1066.6 | 1247.5 | 0.782
303.15 K, x1 = 1 | 1095.1 | 1249.4 | 0.714
308.15 K, x1 = 0.1423 | 841.161 | 1302.6 | 3.981
308.15 K, x1 = 0.2807 | 869.616 | 1289.5 | 2.919
308.15 K, x1 = 0.4121 | 899.625 | 1276 | 2.174
308.15 K, x1 = 0.5237 | 927.793 | 1263.8 | 1.678
308.15 K, x1 = 0.6158 | 953.186 | 1254.6 | 1.366
308.15 K, x1 = 0.7073 | 980.694 | 1245.7 | 1.119
308.15 K, x1 = 0.7885 | 1007.21 | 1238.7 | 0.956
308.15 K, x1 = 0.8662 | 1034.92 | 1233.4 | 0.833
308.15 K, x1 = 0.9331 | 1060.82 | 1230.9 | 0.752
308.15 K, x1 = 1 | 1089.08 | 1230.9 | 0.677
313.15 K, x1 = 0.1423 | 836.375 | 1285.8 | 3.436
313.15 K, x1 = 0.2807 | 864.727 | 1273.2 | 2.562
313.15 K, x1 = 0.4121 | 894.659 | 1260.3 | 1.934
313.15 K, x1 = 0.5237 | 922.757 | 1248.9 | 1.528
313.15 K, x1 = 0.6158 | 948.078 | 1239.6 | 1.267
313.15 K, x1 = 0.7073 | 975.5 | 1230.7 | 1.037
313.15 K, x1 = 0.7885 | 1001.95 | 1223.5 | 0.891
313.15 K, x1 = 0.8662 | 1029.57 | 1217.8 | 0.76
313.15 K, x1 = 0.9331 | 1055.42 | 1214.3 | 0.681
313.15 K, x1 = 1 | 1083.66 | 1212.6 | 0.617
